Experiments:
[1] = test system: total BAL leukocyte count (and eosinophil count); assay: Mouse model of allergic asthma; format: in vivo; settings: 10 mpk, p.o. bid; OVA-sensitized mice; BAL on day 21
Description: (§1) Mouse CCR2 knock-out/human CCR2 knock-in mice were generated using targeted 129Sv/Evbrd embryonic stem cell clones injected into C57BL/6 mice. Expression of the hCCR2 transcript was confirmed by quantitative reverse transcription-polymerase chain reaction performed on spleen and blood total RNA from homozygous hCCR2 knock-in mice. Backcrossing into C57BL/6 genetic background continued to the eighth generation. Transgenic mice were housed in a specific-pathogen-free, temperature-controlled facility that maintained a 12-hour light/12-hour dark cycle. Mice had free access to water and food. […]
Animals were sensitized by intraperitoneal injection of 10 μg chicken egg albumin (OVA) absorbed to 1 mg Imject® in 100 μL phosphate-buffered saline (PBS) on days 0 and 5. […] On day 21, 2 hours post the last dose of CCR2 compounds, bronchial reactivity to aerosolized methacholine was measured using a Buxco whole body plethysmograpgh. […] Bronchoalveolar lavage fluid was collected (1 mL) and total cells counted. The numbers of eosinophils, lymphocytes, monocytes and neutrophils were determined using cytospin analysis after Giemsa staining (Hema Tek 2000). Percent inhibition of total BAL leukocyte count (and eosinophil count) was calculated by comparing the compound-treated mice with vehicle-treated mice. […]

[2] = test system: thioglycollate-induced peritonitis; assay: Thioglycollate-induced peritonitis in mice; format: in vivo; settings: 10 mpk, p.o. bid; 72-hour time point; leukocytes in peritoneal lavage vs vehicle
Description: (§2) Mouse CCR2 knock-out/human CCR2 knock-in mice were generated using targeted 129Sv/Evbrd embryonic stem cell clones injected into C57BL/6 mice. Expression of the hCCR2 transcript was confirmed by quantitative reverse transcription-polymerase chain reaction performed on spleen and blood total RNA from homozygous hCCR2 knock-in mice. Backcrossing into C57BL/6 genetic background continued to the eighth generation. Transgenic mice were housed in a specific-pathogen-free, temperature-controlled facility that maintained a 12-hour light/12-hour dark cycle. Mice had free access to water and food. Experimental procedures were carried out in accordance with institutional standards for animal care and were approved by the institute's animal care and use committee.
Animals were orally dosed with vehicle or CCR2 antagonists at 3, 10, 30 and 100 mg/kg bid). One hour later, the animals were intraperiponeally injected with sterile thioglycollate (25 mL/kg, ip, Sigma) for induction of peritonitis. Animals were orally treated twice daily with vehicle or CCR2 antagonists. At 72-hour time point, perinoteal cavities were lavaged with 10 mL of sterile saline. […] Percent inhibition of the thioglycollate-induced peritonitis was calculated by comparing the change in number of leukocytes of CCR2 antagonist treated mice to the vehicle-treated mice.

[3] = test system: MCP-1-induced monocyte recruitment to airway; assay: MCP-1-induced monocyte recruitment to airway of mice; format: in vivo; settings: 10 mpk, p.o. bid; 4 μg MCP-1 intranasally; after 48 h
Description: as §2
Animals were orally treated with vehicle or CCR2 antagonists at 3, 10, and 30 mg/kg po bid). One hour later, the animals were intranasally dosed with 4 μg of MCP-1 in sterile saline. The animals were orally treated twice daily with vehicle or CCR2 antagonists. After 48 h, mice were euthanized by intraperitoneal injection of anesthesia solution (Sleepaway-Sodium pentobarbital). […] Percent inhibition was calculated by comparing the change in number of total leukocyte counts (including monocytes/macrophages and lymphocytes) of compound-treated mice to the vehicle-treated mice. […]

cell migration = assay: Murine in vivo cell migration assay; design: species or system mice; settings: 10 mpk, P.O. bid; human MCP-1 on small bowel serosa; 24 hours
Description: as §2
Animals were orally dosed with vehicle or CCR2 antagonists at 3, 10 and 30 mg/kg bid. Animals underwent anesthesia and laparotomy. A distal loop of small bowel (5 cm in length) was gently eventrated onto moist sterile gauze. Synthetic human MCP-1 ([…] sterile PBS) or PBS alone was administered drop-wise onto the serosa of the eventrated loop. A suture knot was placed into the mesentery to mark the terminus of the treated area. Twenty-four hours later, the animal was sacrificed and the segment of bowel plus the adjacent region was removed. The tissue was opened along the mesenteric border, pinned flat and the mucosa removed. […]

[4] = High-fat diet induced obesity and insulin resistance in mice; format: in vivo; settings: 10 mpk, p.o. bid; high-fat diet obese mice; 40 days treatment
Description: as §1
Obesity was induced by a high-fat diet that derived approximately 60% calories from lipids (D-12492; Research Diets Inc.) in animals for 10-24 weeks at age of 7 weeks. […] Body weight and food intake and fasting blood glucose levels were monitored. Body mass was determined by a NMR analyzer (Burker MiniSpec). […] After an intraperitoneal bolus injection of recombinant human insulin (1.5 U/kg), blood glucose concentrations were measured using a Glucometer before and 15, 30, 45, 60, 90 and 120 minutes after injection. […] Blood glucose concentrations were measured before and after 15, 30, 60, 90, 120 minutes after an oral dose of glucose dissolved in water (1 g/kg). Energy expenditure analysis was monitored by a complete laboratory animal monitor system. […]

O=C(CNC(=O)c1cccc(C(F)(F)F)c1)NC1CN(C2CCC(O)(c3cncs3)CC2)C1 (centres unmarked) [Example 40, N-{[1-(4-Hydroxy-4-thiazol-5-yl-cyclohexyl)-azetidin-3-ylcarbamoyl]-methyl}-3-trifluoromethyl-benzamide]
reduction of cell count (efficacious if the inhibition reaches 30%) [1]: efficacious
inhibition of thioglycollate-induced peritonitis [2]: > 50%
percent inhibition of total leukocyte counts in BAL [3]: > 50%
blocking cell migration (efficacious if the inhibition of cell migration reaches 30% compared with vehicle-treated animals) (cell migration): efficacious
reduce body weight (percent of weight loss vs vehicle-treated mice) [4]: > 8%
